Reference: ChEMBL document CHEMBL5352446, “Synthesis and biological evaluation of a novel c-Myc inhibitor against colorectal cancer via blocking c-Myc/Max heterodimerization and disturbing its DNA binding” (Eur J Med Chem, 2022)

Legend:
HCT-15 = experiment: Antiproliferative activity against human HCT-15 cells incubated for 72 hrs by MTT assay; assay type: functional, cell-based; conditions: HCT-15, 72 h
HCT-8 = experiment: Antiproliferative activity against human HCT-8 cells incubated for 72 hrs by MTT assay; assay type: functional, cell-based; conditions: HCT-8, 72 h
HT-29 [1] = experiment: cells; conditions: Homo sapiens, HT-29, 72 h
Description: Antiproliferative activity against human HT-29 cells incubated for 72 hrs by MTT assay

HCT-116 = experiment: cells; conditions: Homo sapiens, HCT-116, 72 h
Description: Antiproliferative activity against human HCT-116 cells incubated for 72 hrs by MTT assay

HT-29 [2] = experiment: Inhibition of colony formation in human HT-29 cells measured after 14 days by crystal violet staining based assay; assay type: functional, cell-based; conditions: dose 0.25-2 µM, time 14.0 day
HT-29 [3] = experiment: Downregulation of c-Myc expression in human […] cells incubated for 24 hrs by Western blot analysis; assay type: functional, cell-based; conditions: dose 2.5-10 µM
Homo sapiens = organism: Homo sapiens; experiment: Inhibition of human Myc (353 to 439 residues)/Max(S) (151 residues) expressed in Escherichia coli BL21(DE3) binding to biotinylated double-stranded DNA oligonucleotide 5'-CACCCGGTCACTGGCCTACAC-3' (unknown origin) preincubated for 90 mins followed by oligonucleotide addition for 25 mins by EMSA; conditions: time 115.0 min
HT-29 [4] = experiment: Antitumor activity against human HT-29 cells xenografted in BALB/c mouse assessed as tumor growth inhibition at 40 mg/kg, ip administered daily for 3 weeks by caliper method; assay type: functional; conditions: HT-29, 504 h, read-out: TGI
[5] = Inhibition of c-Myc/Max binding to DNA (unknown origin) by fluorescence polarization assay; parameters: species or system Homo sapiens
[6] = Toxicity in BALB/c mouse xenografted with human HT-29 cells assessed as body weight loss at 40 mg/kg, ip measured after 12 days; assay type: organism-based; conditions: in vivo, 288 h, time 12 day
[7] = Toxicity in BALB/c mouse xenografted with human HT-29 cells assessed as heart damage at 40 mg/kg, ip measured after 21 days by H and E staining based assay; assay type: organism-based; conditions: in vivo, 504 h, time 21 day
[8] = Toxicity in BALB/c mouse xenografted with human HT-29 cells assessed as liver damage at 40 mg/kg, ip measured after 21 days by H and E staining based assay; assay type: organism-based; conditions: in vivo, 504 h, time 21 day
[9] = Toxicity in BALB/c mouse xenografted with human HT-29 cells assessed as lung damage at 40 mg/kg, ip measured after 21 days by H and E staining based assay; assay type: organism-based; conditions: in vivo, 504 h, time 21 day
[10] = Toxicity in BALB/c mouse xenografted with human HT-29 cells assessed as kidney damage at 40 mg/kg, ip measured after 21 days by H and E staining based assay; assay type: organism-based; conditions: in vivo, 504 h, time 21 day
c-Myc/c-Max = c-Myc/c-Max (Homo sapiens, UniProt P01106+P61244); experiment: Inhibition of c-Myc to Max protein dimerization (unknown origin) by electrophoretic mobility shift assay
Sequence of c-Myc/c-Max (P01106 whole entry): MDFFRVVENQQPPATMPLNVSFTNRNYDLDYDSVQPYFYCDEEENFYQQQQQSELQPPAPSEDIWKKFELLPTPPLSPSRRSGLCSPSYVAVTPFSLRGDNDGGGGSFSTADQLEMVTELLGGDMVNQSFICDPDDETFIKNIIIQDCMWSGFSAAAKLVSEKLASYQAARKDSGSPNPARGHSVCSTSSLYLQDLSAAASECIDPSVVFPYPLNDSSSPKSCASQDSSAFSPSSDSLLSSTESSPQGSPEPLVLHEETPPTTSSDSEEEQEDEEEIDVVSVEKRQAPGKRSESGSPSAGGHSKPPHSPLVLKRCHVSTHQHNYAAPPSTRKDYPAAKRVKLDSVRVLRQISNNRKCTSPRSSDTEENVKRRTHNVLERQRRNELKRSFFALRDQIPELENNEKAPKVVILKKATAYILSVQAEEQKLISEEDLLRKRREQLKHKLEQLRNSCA
Sequence of c-Myc/c-Max (P61244 whole entry): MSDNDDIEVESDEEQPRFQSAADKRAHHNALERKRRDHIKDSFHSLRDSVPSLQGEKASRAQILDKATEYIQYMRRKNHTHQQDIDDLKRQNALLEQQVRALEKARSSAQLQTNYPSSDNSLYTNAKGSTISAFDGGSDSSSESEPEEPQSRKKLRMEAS

Row | Structure (SMILES) | IC50 (HCT-15) [µM] | IC50 (HCT-8) [µM] | IC50 (HT-29 [1]) [nM] | IC50 (HCT-116) [µM] | other results
1 | CCCCc1ccc(Nc2ccc(Oc3cc(OC)c(CNCCc4ccc(C(F)(F)F)cc4)c(OC)c3)cc2)cc1 | 4.86 | 4.98 | 1750 | 3.1 | 
2 | COc1cc(Oc2ccc(Nc3ccc(Cl)cc3)cc2)cc(OC)c1CNCCc1ccc(C(F)(F)F)cc1 | 5.31 | 4.1 | 1290 | 3.53 | 
3 | COc1cc(Oc2ccc(Nc3ccccc3)cc2)cc(OC)c1CNCCc1cccs1 | 7.56 | 10.8 | 2650 | 3.85 | 
4 | COc1ccc(CCNCc2c(OC)cc(Oc3ccc(Nc4ccccc4)cc3)cc2OC)cc1 | 3.15 | 4.81 | 1360 | 1.95 | inhibition (HT-29 [2]): Dose-Dependent Effect; Activity (HT-29 [3]): Dose-Dependent Effect; inhibition (Homo sapiens): Dose-Dependent Effect; inhibition in vivo at 40 mg/kg (HT-29 [4]): 55.8%
5 | COc1cc(Oc2ccc(-c3ccc(F)cc3)cc2)cc(OC)c1CNCCc1ccc(C(F)(F)F)cc1 | 4.23 | 7.89 | 1950 | 3.77 | 
6 | COc1ccc(Nc2ccc(Oc3cc(OC)c(CNCCc4ccc(C(F)(F)F)cc4)c(OC)c3)cc2)cc1OC | 3.35 | 3.13 | 920 | 1.35 | 
7 | COc1cc(Oc2ccc(Nc3ccc(CCO)cc3)cc2)cc(OC)c1CNCCc1ccc(C(F)(F)F)cc1 | 3.21 | 3.58 | 860 | 2.05 | 
8 | COc1cc(Oc2ccc(Nc3ccc(CO)cc3)cc2)cc(OC)c1CNCCc1ccc(C(F)(F)F)cc1 | 3.33 | 3.23 | 1030 | 3.22 | 
9 | CCc1ccc(Nc2ccc(Oc3cc(OC)c(CNCCc4ccc(C(F)(F)F)cc4)c(OC)c3)cc2)cc1 | 5.54 | 4.58 | 1510 | 3.87 | 
10 | COc1cc(Oc2ccc(Nc3ccc(C(F)(F)F)c(C(F)(F)F)c3)cc2)cc(OC)c1CNCCc1ccc(C(F)(F)F)cc1 | 2.12 | 6.98 | 2350 | 1.64 | 
11 | COc1cc(Oc2ccc(Nc3ccccc3)cc2)cc(OC)c1CNCCc1ccc(C)cc1 | 5.88 | 10.2 | 2830 | 4.01 | 
12 | CCOc1ccc(Nc2ccc(Oc3cc(OC)c(CNCCc4ccc(C(F)(F)F)cc4)c(OC)c3)cc2)cc1 | 5.3 | 5.32 | 860 | 3.08 | 
13 | COc1ccc(Nc2ccc(Oc3cc(OC)c(CNCCc4ccc(C(F)(F)F)cc4)c(OC)c3)cc2)cc1 | 6.37 | 4.22 | 1410 | 1.91 | 
14 | COc1cc(Oc2ccc(-c3ccc(C(F)(F)F)cc3)cc2)cc(OC)c1CNCCc1ccc(C(F)(F)F)cc1 | 4.89 | 8.76 | 2510 | 4.7 | 
15 | COc1ccc(-c2ccc(Oc3cc(OC)c(CNCCc4ccc(C(F)(F)F)cc4)c(OC)c3)cc2)cc1 | 2.34 | 6.45 | 2190 | 2.62 | 
16 | COc1cc(Oc2ccc(-c3ccccc3)cc2)cc(OC)c1CNCCc1ccc(C(F)(F)F)cc1 | 1.55 | 6.98 | 1410 | 2.8 | 
17 | COc1cc(Oc2ccc(Nc3ccc(C#N)cc3)cc2)cc(OC)c1CNCCc1ccc(C(F)(F)F)cc1 | 2.43 | 6.75 | 900 | 2.38 | 
18 | COc1cc(Oc2ccc(-c3ccc(Br)cc3)cc2)cc(OC)c1CNCCc1ccc(C(F)(F)F)cc1 | 2.23 | 8.75 | 2570 | 2.71 | 
19 | COc1cc(Oc2ccc(Nc3ccc(C)cc3)cc2)cc(OC)c1CNCCc1ccc(C(F)(F)F)cc1 | 5.61 | 7.13 | 1110 | 2.13 | 
20 | COC(=O)c1ccc(Nc2ccc(Oc3cc(OC)c(CNCCc4ccc(C(F)(F)F)cc4)c(OC)c3)cc2)cc1 | 4.35 | 7.34 | 1280 | 5.98 | 
21 | CCCc1ccc(Nc2ccc(Oc3cc(OC)c(CNCCc4ccc(C(F)(F)F)cc4)c(OC)c3)cc2)cc1 | 5.62 | 4.1 | 1600 | 3.23 | 
22 | COc1ccc(Nc2ccc(Oc3cc(OC)c(CNCCc4ccc(C(F)(F)F)cc4)c(OC)c3)cc2)cc1C | 7.09 | 6.97 | 2340 | 5.25 | 
23 | C=C(OCC)c1cnn(-c2ccccc2)c1NC(=O)c1cc2nc(-c3ccco3)cc(C(F)(F)Cl)n2n1 |  |  |  |  | IC50 [5]: 40 µM

Row | Structure (SMILES) | IC50 (HCT-15) [µM] | IC50 (HCT-8) [µM] | IC50 (HT-29 [1]) [nM] | IC50 (HCT-116) [µM] | other results
24 | COc1cc(Oc2ccc(Nc3ccccc3)cc2)cc(OC)c1CNCCc1ccc(N)cc1 | 5.65 | 6.21 | 2650 | 2.87 | 
25 | COc1cc(Oc2ccc(Nc3ccccc3)cc2)cc(OC)c1CNCCc1ccc(Br)cc1 | 6.97 | 7.13 | 2380 | 2.96 | 
26 | COc1cc(Oc2ccc(-c3ccc(Cl)cc3)cc2)cc(OC)c1CNCCc1ccc(C(F)(F)F)cc1 | 3.23 | 6.09 | 2060 | 5.05 | 
27 | COc1cc(Oc2ccc(Nc3ccccc3)cc2)cc(OC)c1CNCCc1ccc(C(F)(F)F)cc1 | 2.78 | 4.23 | 1050 | 1.75 | 
28 | COc1cc(Oc2ccc(Nc3ccc(SC)cc3)cc2)cc(OC)c1CNCCc1ccc(C(F)(F)F)cc1 | 2.13 | 8.36 | 1720 | 3.79 | 
29 | COc1cc(Oc2ccc(Nc3ccc(C(=O)C(F)(F)F)cc3)cc2)cc(OC)c1CNCCc1ccc(C(F)(F)F)cc1 | 1.89 | 7.86 | 1930 | 2.43 | 
30 | O=c1[nH]cc(F)c(=O)[nH]1 [FLUOROURACIL] | 8.23 | > 20 | 9190 | 6.5 | inhibition in vivo at 40 mg/kg (HT-29 [4]): 50.2%; Activity [6]: Toxic; Activity [7]: Toxic; Activity [8]: Toxic; Activity [9]: Toxic; Activity [10]: Toxic
31 | COc1cc(Oc2ccc(Nc3ccccc3)cc2)cc(OC)c1CNCCc1ccc(O)cc1 | 4.54 | 6.78 | 2750 | 3.46 | 
32 | COc1cc(Oc2ccc(Nc3ccc(F)cc3)cc2)cc(OC)c1CNCCc1ccc(C(F)(F)F)cc1 | 6.23 | 5.32 | 1470 | 3.4 | 
33 | COc1cc(Oc2ccc(-c3ccc(C)cc3)cc2)cc(OC)c1CNCCc1ccc(C(F)(F)F)cc1 | 2.32 | 8.95 | 1350 | 2.41 | 
34 | COc1cc(Oc2ccc(Nc3ccc(C(C)(C)C)cc3)cc2)cc(OC)c1CNCCc1ccc(C(F)(F)F)cc1 | 5.76 | 9.76 | 2180 | 6.48 | 
35 | COc1ccc(CCNCc2c(OC)cc(Oc3ccc(Nc4ccccc4)cc3)cc2OC)cc1OC | 3.54 | 6.32 | 1540 | 2.62 | 
36 | COc1cc(Oc2ccc(Nc3ccc(C(F)(F)F)cc3)cc2)cc(OC)c1CNCCc1ccc(C(F)(F)F)cc1 | 3.24 | 8.49 | 1310 | 6.46 | 
37 | COc1cc(Oc2ccc(Nc3ccccc3)cc2)cc(OC)c1CNCCc1ccc(F)cc1 | 5.64 | 6.32 | 2790 | 3.13 | 
38 | COc1cc(Oc2ccc(Nc3ccccc3)cc2)cc(OC)c1CNCCc1ccc(Cl)cc1 | 6.64 | 6.13 | 2440 | 4.98 | 
39 | O=C(O)c1ccc(Nc2ccc([N+](=O)[O-])c3nonc23)cc1 |  |  |  |  | IC50 (c-Myc/c-Max): 33 µM
40 | COc1cc(Oc2ccc(Nc3ccc(-c4cnc5ccccc5c4)cc3)cc2)cc(OC)c1CNCCc1ccc(C(F)(F)F)cc1 | 1.58 | 6.77 | 1990 | 3.12 | 
41 | COc1cc(Oc2ccc(Nc3ccc(C(F)(F)F)c(F)c3)cc2)cc(OC)c1CNCCc1ccc(C(F)(F)F)cc1 | 2.34 | 8.63 | 1420 | 1.74 | 
42 | COc1cc(Oc2ccc(Nc3ccc(-c4ccccc4)cc3)cc2)cc(OC)c1CNCCc1ccc(C(F)(F)F)cc1 | 3.41 | 5.88 | 1700 | 3.85 | 
43 | COc1cc(Oc2ccc(Nc3ccc(Cc4ccccc4)cc3)cc2)cc(OC)c1CNCCc1ccc(C(F)(F)F)cc1 | 4.48 | 6.57 | 1130 | 5.21 | 
44 | COc1cc(Oc2ccc(Nc3ccc(Br)cc3)cc2)cc(OC)c1CNCCc1ccc(C(F)(F)F)cc1 | 3.85 | 6.98 | 1310 | 3.54 | 
45 | COc1cc(Oc2ccc(Nc3ccccc3)cc2)cc(OC)c1CNCCc1ccccn1 | 6.87 | 11.2 | 2940 | 2.76 | 
